Results published in PMC12133000 (PLOS One, 2025).
Several values for one entry are separate records, joined by “and”; a condition that tells them apart may be missing. Equal entries are not always repeated.

Assay: Pharmacokinetics of rivaroxaban in rats after avitinib or gefitinib pretreatment
Type: in vivo, Sprague–Dawley (SD) rats
Design: AUC(0-∞): concentration or dose not given beside the values
Protocol: Eighteen male Sprague–Dawley (SD) rats weighing 300 ± 20 g were provided by the Experimental Animal Center of Wenzhou Medical University (Wenzhou, China) and kept under controlled conditions at a temperature of 23 ± 2 °C, relative humidity of 50 ± 10%, and 12 h light–dark cycle. Eighteen male SD rats were randomly assigned to three groups: avitinib, gefitinib, and control, with six rats per group. Prior to the experiment, the rats were not administered any other medications and fasted for 12 h. The experimental procedures and protocols adhered to Animal Ethics standards and were approved by the Animal Care and Use Committee of Wenzhou Medical University (approval no. wydw2019–650). All rats were anesthetized with sodium pentobarbital (40mg/kg, i.p) to relieve pain. The rats were killed through cervical dislocation.
Prior to the experiment in vivo, the six rats in the avitinib group were administered 30 mg/kg avitinib and 0.5% sodium carboxymethyl cellulose (CMC-Na) solution by gavage daily for 7 d. […] The supernatant was collected and stored at −80 °C. After thawing, 50 μL of plasma was extracted; 100 μL of acetonitrile solution containing midazolam (200 ng/mL) was then added to induce protein precipitation. After vortexing for 30 s and centrifuging at 13,000 rpm for 5 min, the […].
All assays were performed in triplicate, and the results are expressed as mean ± standard deviation. DAS software v. […] SPSS v. 25.0 (IBM, NY, USA) was used for data processing. Student’s t-tests were used to detect differences between groups. Differences with p < 0.05 were considered statistically significant.

[1] = avitinib group, single rats No1-No6, listed as 利伐沙班
[2] = gefitinib group, single rats No1-No6, listed as 利伐沙班

- AUMC(0-t) (avitinib group, Mean): 34198 h*h*ug/L
- AUMC(0-∞) (avitinib group, Mean): 40098.5 h*h*ug/L
- MRT(0-∞) (avitinib group, Mean): 4.258 h
- R_AUC(t/∞) (avitinib group, Mean): 96.35%
- VRT(0-t) (avitinib group, Mean): 6.828 h^2
- VRT(0-∞) (avitinib group, Mean): 12.881 h^2
- Vz/F (avitinib group, Mean): 3.719 L/kg
- AUMC(0-t) (gefitinib group, Mean): 283625 h*h*ug/L
- AUMC(0-∞) (gefitinib group, Mean): 684002 h*h*ug/L
- R_AUC(t/∞) (gefitinib group, Mean): 79.633%
- VRT(0-t) (gefitinib group, Mean): 8.14 h^2
- VRT(0-∞) (gefitinib group, Mean): 63.366 h^2
- concentration at 5 min (male, Sprague-Dawley, rat, plasma, oral, 10 mg/kg, rivaroxaban ng/ml mean, control (rivaroxaban alone) group, mean of rats 13-18, time 0.0833): 158 ng/mL
- concentration at 0.25 h (male, Sprague-Dawley, rat, plasma, oral, 10 mg/kg, rivaroxaban ng/ml mean, control (rivaroxaban alone) group, mean of rats 13-18, time 0.25): 259 ng/mL
- concentration at 0.5 h (male, Sprague-Dawley, rat, plasma, oral, 10 mg/kg, rivaroxaban ng/ml mean, control (rivaroxaban alone) group, mean of rats 13-18, time 0.5): 397 ng/mL
- concentration at 1 h (male, Sprague-Dawley, rat, plasma, oral, 10 mg/kg, rivaroxaban ng/ml mean, control (rivaroxaban alone) group, mean of rats 13-18, time 1): 435 ng/mL
- concentration at 2 h (male, Sprague-Dawley, rat, plasma, oral, 10 mg/kg, rivaroxaban ng/ml mean, control (rivaroxaban alone) group, mean of rats 13-18, time 2): 337 ng/mL
- concentration at 3 h (male, Sprague-Dawley, rat, plasma, oral, 10 mg/kg, rivaroxaban ng/ml mean, control (rivaroxaban alone) group, mean of rats 13-18, time 3): 291 ng/mL
- concentration at 4 h (male, Sprague-Dawley, rat, plasma, oral, 10 mg/kg, rivaroxaban ng/ml mean, control (rivaroxaban alone) group, mean of rats 13-18, time 4): 238 ng/mL
Structure (SMILES): O=C(NC[C@H]1CN(c2ccc(N3CCOCC3=O)cc2)C(=O)O1)c1ccc(Cl)s1 [rivaroxaban, Rivaroxaban]
- AUC(0-t) [1]: 6581.83 ng·h/mL and 7888.62 ng·h/mL and 9151.91 ng·h/mL and 7417.4 ng·h/mL and 6560.88 ng·h/mL and 16372.3 ng·h/mL
- AUC(0-∞) [1]: 6854.37 ng·h/mL and 9138.32 ng·h/mL and 9162.9 ng·h/mL and 7462.9 ng·h/mL and 6602.34 ng·h/mL and 16863.5 ng·h/mL
- AUMC(0-t) [1]: 25199.7 h*h*ug/L and 32914.3 h*h*ug/L and 26176.1 h*h*ug/L and 34761 h*h*ug/L and 21050.6 h*h*ug/L and 65086.6 h*h*ug/L
- AUMC(0-∞) [1]: 29578.1 h*h*ug/L and 55191.1 h*h*ug/L and 26325.9 h*h*ug/L and 35414.7 h*h*ug/L and 21638.6 h*h*ug/L and 72442.7 h*h*ug/L
- CLz/F [1]: 24.32 mL/min/kg and 18.23 mL/min/kg and 18.18 mL/min/kg and 22.3 mL/min/kg and 25.25 mL/min/kg and 9.88 mL/min/kg
- Cmax [1]: 1423.2 ng/mL and 1593.7 ng/mL and 2386.3 ng/mL and 1162.7 ng/mL and 1561.2 ng/mL and 2761.8 ng/mL
- MRT(0-t) [1]: 4.172 h and 2.86 h and 4.686 h and 3.208 h and 3.975 h
- MRT(0-∞) [1]: 4.315 h and 6.04 h and 4.745 h and 3.277 h and 4.296 h
- R_AUC(t/∞) [1]: 96% and 86.3% and 99.9% and 99.4% (2×) and 97.1%
- VRT(0-t) [1]: 8.179 h^2 and 9.654 h^2 and 3.358 h^2 and 8.878 h^2 and 4.734 h^2 and 6.165 h^2
- VRT(0-∞) [1]: 14.228 h^2 and 34.982 h^2 and 3.496 h^2 and 9.426 h^2 and 5.486 h^2 and 9.666 h^2
- Vz/F [1]: 5.931 L/kg and 6.375 L/kg and 1.763 L/kg and 3.171 L/kg and 3.308 L/kg and 1.765 L/kg
- t1/2z [1]: 2.817 h and 4.037 h and 1.12 h and 1.64 h and 1.514 h and 2.062 h
- λz [1]: 0.246 h⁻¹ and 0.172 h⁻¹ and 0.619 h⁻¹ and 0.423 h⁻¹ and 0.458 h⁻¹ and 0.336 h⁻¹
- AUC(0-t) [2]: 48396.5 ng·h/mL and 60392.6 ng·h/mL and 53896.5 ng·h/mL and 64214.9 ng·h/mL and 58569.4 ng·h/mL
- AUC(0-∞) [2]: 54327.6 ng·h/mL and 62633.7 ng·h/mL and 64818.2 ng·h/mL and 71935.8 ng·h/mL and 93798.8 ng·h/mL
- AUMC(0-t) [2]: 349046 h*h*ug/L and 247888 h*h*ug/L and 261964 h*h*ug/L and 270195 h*h*ug/L and 282576 h*h*ug/L and 290080 h*h*ug/L
- AUMC(0-∞) [2]: 1493251 h*h*ug/L and 344803 h*h*ug/L and 295419 h*h*ug/L and 469845 h*h*ug/L and 411554 h*h*ug/L and 1089140 h*h*ug/L
- Cmax [2]: 6430.2 ng/mL and 11259.7 ng/mL and 7015.4 ng/mL and 10641.7 ng/mL and 7734.1 ng/mL
- MRT(0-t) [2]: 5.122 h and 4.338 h and 5.013 h and 4.4 h and 4.953 h
- MRT(0-∞) [2]: 13.743 h and 6.347 h and 4.717 h and 7.249 h and 5.721 h and 11.611 h
- R_AUC(t/∞) [2]: 57.4% and 89.1% and 96.4% and 83.2% and 89.3% and 62.4%
- VRT(0-t) [2]: 10.639 h^2 and 8.135 h^2 and 6.361 h^2 and 8.635 h^2 and 7.676 h^2 and 7.393 h^2
- VRT(0-∞) [2]: 164.942 h^2 and 21.543 h^2 and 10.309 h^2 and 38.485 h^2 and 23.734 h^2 and 121.182 h^2
- Vz/F [2]: 1.173 L/kg and 0.799 L/kg and 0.467 L/kg and 0.969 L/kg and 0.654 L/kg and 1.139 L/kg
- t1/2z [2]: 8.833 h and 3.008 h and 2.029 h and 4.352 h and 3.261 h and 7.402 h
- λz [2]: 0.078 h⁻¹ and 0.23 h⁻¹ and 0.342 h⁻¹ and 0.159 h⁻¹ and 0.213 h⁻¹ and 0.094 h⁻¹
